# Data as given in US6706663B2, “Herbicidal 3-heterocyclic substituted benzisothiazole and benzisoxazole compounds” (Wyeth, priority 2000, dated 2004).
# Assays:
# [1] = test system: ABUTH (Abutilon theophrasti); test: Preemergence herbicidal evaluation; assay type: in vivo, Medic.; conditions: preemergence, rated 4-5 weeks after treatment
# [2] = test system: AMBEL (Ambrosia artemisifolia); test: Preemergence herbicidal evaluation; assay type: in vivo, L.; conditions: preemergence, rated 4-5 weeks after treatment
# Outline: (§1)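 Applied before emergence as an aqueous acetone spray over seeded soil. Read-out: 0–9 visual rating covering plant stand, vigor, size, chlorosis, malformation and overall appearance compared with control, taken 4–5 weeks after spraying.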
# [3] = test system: CHEAL (Chenopodium album); test: Preemergence herbicidal evaluation; assay type: in vivo, L.; conditions: preemergence, rated 4-5 weeks after treatment
# Outline: as §1
# GALAP (Galium aparine) [4] = test: Preemergence herbicidal evaluation; assay type: in vivo; conditions: preemergence, rated 4-5 weeks after treatment
# Outline: as §1
# IPOSS (Ipomoea Spp.) [5] = test: Preemergence herbicidal evaluation; assay type: in vivo; conditions: rated 4-5 weeks after treatment
# From the text: (§2) Results of herbicide evaluation are expressed on a rating scale (0-9). The scale is based upon a visual observation of plant stand, vigor, malformation, size, chlorosis and overall plant appearance as compared with a control.
# The preemergence herbicidal activity of the test compounds of the present invention is exemplified by the following tests in which the seeds of a variety of monocotyledonous and dicotyledonous plants are separately mixed with potting soil and planted on top of approximately one inch of soil in separate pint cups. After planting, the cups are sprayed with the selected aqueous acetone solution containing test compound in sufficient quantity to provide the equivalent of about […] per hectare of test compound per cup. The treated cups are then placed on greenhouse benches, watered and cared for in accordance with conventional greenhouse procedures. From four to five weeks after treatment, the tests are terminated and each cup is examined and rated according to the rating system provided in Example 87. The plant species used and the compounds evaluated are the same as those shown in Example 87.
# [6] = test system: ECHCG (Echinochloa crus-galli); test: Preemergence herbicidal evaluation; assay type: in vivo, (L.) Beau; conditions: preemergence, rated 4-5 weeks after treatment
# Outline: as §1
# SETVI (Setaria viridis) [7] = test: Preemergence herbicidal evaluation; assay type: in vivo, (L.) Beau; conditions: preemergence, rated 4-5 weeks after treatment
# Outline: as §1
# [8] = test system: GLXMAW (Soybean, Williams); test: Preemergence herbicidal evaluation; assay type: in vivo, Glycine max, (L.) Merr. cv Williams; conditions: preemergence, rated 4-5 weeks after treatment
# ORYSAT (Rice, Tebonnet) [9] = test: Preemergence herbicidal evaluation; assay type: in vivo, Oryza sativa, (L.) Tebonnet; conditions: preemergence, rated 4-5 weeks after treatment
# [10] = test system: TRZAWR (Wheat, Winter, cv Riband); test: Preemergence herbicidal evaluation; assay type: in vivo, Triticum aestivum; conditions: preemergence, rated 4-5 weeks after treatment
# Outline: as §1
# ZEAMX (Corn, Field) [11] = test: Preemergence herbicidal evaluation; assay type: in vivo, Zea mays, L.; conditions: preemergence, rated 4-5 weeks after treatment
# [12] = test system: ABUTH (Abutilon theophrasti); test: Postemergence herbicidal evaluation; assay type: in vivo, Medic.; conditions: postemergence
# Outline: (§3)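 Seedlings grown about two weeks in flats, sprayed, then kept under standard greenhouse care. Rated visually 4–5 weeks after treatment on a 0–9 scale (stand, vigour, malformation, size, chlorosis, overall appearance) relative to untreated control; repeat tests averaged.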
# [13] = test system: AMBEL (Ambrosia artemisifolia); test: Postemergence herbicidal evaluation; assay type: in vivo, L.; conditions: postemergence
# Outline: as §3
# [14] = test system: CHEAL (Chenopodium album); test: Postemergence herbicidal evaluation; assay type: in vivo, L.; conditions: postemergence
# Outline: as §3
# [15] = test system: IPOHE (Ipomoea hederacea); test: Postemergence herbicidal evaluation; assay type: in vivo, (L.) Jacq.; conditions: postemergence
# Outline: as §3
# [16] = test system: ECHCG (Echinochloa crus-galli); test: Postemergence herbicidal evaluation; assay type: in vivo, (L.) Beau; conditions: postemergence
# Outline: as §3
# SETVI (Setaria viridis) [17] = test: Postemergence herbicidal evaluation; assay type: in vivo, (L.) Beau; conditions: postemergence
# Outline: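 Seedlings grown about two weeks were sprayed with compound in 50/50 acetone/water containing 0.5% TWEEN 20, at about 0.0040 to 1.000 kg/ha via nozzle at 40 psi. Plants were kept under greenhouse conditions and visually rated on a 0-9 scale versus control four to five weeks after treatment; replicate tests averaged.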
# GLXMA (Soybean) = test: Postemergence herbicidal evaluation; assay type: in vivo, Glycine max, (L.) Merr.; conditions: postemergence
# Experimental: (§4) In the tests, seedling plants are grown in jiffy flats for about two weeks. The test compounds are dispersed in 50/50 acetone/water mixtures containing 0.5% TWEEN® 20, a polyoxyethylene sorbitan monolaurate surfactant of Atlas Chemical Industries, in sufficient quantities to provide the equivalent of about 0.0040 kg to 1.000 kg per hectare of active compound when applied to the plants through a spray nozzle operating at 40 psi for a predetermined time. After spraying, the plants are placed on greenhouse benches and are cared for in accordance with conventional greenhouse procedures. From four to five weeks after treatment, the seedling plants are examined and rated according to the rating system set forth below. Where more than one test is involved for a given compound, the data are averaged.
# as §2
# ZEAMX (Corn, Field) [18] = test: Postemergence herbicidal evaluation; assay type: in vivo, Zea mays, L.; conditions: postemergence
# Outline: as §3
# GALAP (Galium aparine) [19] = test: Postemergence herbicidal evaluation; assay type: in vivo; conditions: postemergence, rate 0.3000 kg/ha
# Outline: as §3
# IPOSS (Ipomoea Spp.) [20] = test: Postemergence herbicidal evaluation; assay type: in vivo; conditions: rate 0.3000 kg/ha
# Experimental: as §4, §2
# [21] = test system: GLXMAW (Soybean, Williams); test: Postemergence herbicidal evaluation; assay type: in vivo, Glycine max, (L.) Merr. cv Williams; conditions: postemergence, rate 0.3000 kg/ha
# Outline: as §3
# ORYSAT (Rice, Tebonnet) [22] = test: Postemergence herbicidal evaluation; assay type: in vivo, Oryza sativa, (L.) Tebonnet; conditions: postemergence, rate 0.3000 kg/ha
# Outline: as §3
# [23] = test system: TRZAWR (Wheat, Winter, cv Riband); test: Postemergence herbicidal evaluation; assay type: in vivo, Triticum aestivum; conditions: postemergence, rate 0.3000 kg/ha
# Outline: as §3
smiles,measurement,setting,value
"Cn1c(C(F)(F)F)cc(=O)n(-c2ccc3snc(C4(O)N=C(c5ccccc5)NC4=O)c3c2)c1=O (stereo not drawn) [Compound 94, 3-[3-(4-hydroxy-5-oxo-2-phenyl-2-imidazolin-4-yl)-1,2-benzisothiazol-5-yl]-1-methyl-6-(trifluoromethyl)uracil]",Preemergence herbicidal rating ABUTH,[1]; rate 1.0000 kg/ha,7.0
same,Preemergence herbicidal rating AMBEL,[2]; rate 1.0000 kg/ha,5.0
same,Preemergence herbicidal rating CHEAL,[3]; rate 1.0000 kg/ha,8.0
same,Preemergence herbicidal rating GALAP,GALAP (Galium aparine) [4]; rate 1.0000 kg/ha,8.0
same,Preemergence herbicidal rating IPOSS,IPOSS (Ipomoea Spp.) [5]; rate 1.0000 kg/ha,7.0
same,Preemergence herbicidal rating ECHCG,[6]; rate 1.0000 kg/ha,2.0
same,Preemergence herbicidal rating SETVI,SETVI (Setaria viridis) [7]; rate 1.0000 kg/ha,5.0
same,Preemergence herbicidal rating GLXMAW,[8]; rate 1.0000 kg/ha,5.0
same,Preemergence herbicidal rating ORYSAT,"ORYSAT (Rice, Tebonnet) [9]; rate 1.0000 kg/ha",6.0
same,Preemergence herbicidal rating TRZAWR,[10]; rate 1.0000 kg/ha,5.0
same,Preemergence herbicidal rating ZEAMX,"ZEAMX (Corn, Field) [11]; rate 1.0000 kg/ha",3.0
"Cn1c(C(F)(F)F)cc(=O)n(-c2ccc3snc(C4(O)N=C(C(C)(C)C)NC4=O)c3c2)c1=O (stereo not drawn) [Compound 95, 3-[3-(2-tert-butyl-4-hydroxy-5-oxo-2-imidazolin-4-yl)-1,2-benzisothiazol-5-yl]-1-methyl-6-(trifluoromethyl)uracil]",ABUTH herbicidal rating,[12]; rate 0.0320 kg/ha,9.0
same,ABUTH herbicidal rating,[12]; rate 0.0620 kg/ha,9.0
same,AMBEL herbicidal rating,[13]; rate 0.0320 kg/ha,4.0
same,AMBEL herbicidal rating,[13]; rate 0.0620 kg/ha,8.0
same,CHEAL herbicidal rating,[14]; rate 0.0320 kg/ha,8.0
same,CHEAL herbicidal rating,[14]; rate 0.0620 kg/ha,9.0
same,IPOHE herbicidal rating,[15]; rate 0.0320 kg/ha,8.0
same,IPOHE herbicidal rating,[15]; rate 0.0620 kg/ha,9.0
same,ECHCG herbicidal rating,[16]; rate 0.0320 kg/ha,2.0
same,ECHCG herbicidal rating,[16]; rate 0.0620 kg/ha,3.0
same,SETVI herbicidal rating,SETVI (Setaria viridis) [17]; rate 0.0320 kg/ha,4.0
same,SETVI herbicidal rating,SETVI (Setaria viridis) [17]; rate 0.0620 kg/ha,7.0
same,GLXMA herbicidal rating,GLXMA (Soybean); rate 0.0320 kg/ha,8.0
same,GLXMA herbicidal rating,GLXMA (Soybean); rate 0.0620 kg/ha,8.0
same,ZEAMX herbicidal rating,"ZEAMX (Corn, Field) [18]; rate 0.0320 kg/ha",3.5
same,ZEAMX herbicidal rating,"ZEAMX (Corn, Field) [18]; rate 0.0620 kg/ha",3.5
Cn1c(C(F)(F)F)cc(=O)n(-c2ccc3snc(C4(O)C(=O)NC(=N)C4(C)C)c3c2)c1=O (stereo not drawn) [Compound 96],ABUTH herbicidal rating,[12]; rate 0.0320 kg/ha,3.0
same,ABUTH herbicidal rating,[12]; rate 0.0620 kg/ha,4.0
same,ABUTH herbicidal rating,[12]; rate 0.3000 kg/ha,9.0
same,AMBEL herbicidal rating,[13]; rate 0.0320 kg/ha,4.0
same,AMBEL herbicidal rating,[13]; rate 0.0620 kg/ha,5.0
same,AMBEL herbicidal rating,[13]; rate 0.3000 kg/ha,6.0
same,CHEAL herbicidal rating,[14]; rate 0.0320 kg/ha,3.0
same,CHEAL herbicidal rating,[14]; rate 0.0620 kg/ha,4.0
same,CHEAL herbicidal rating,[14]; rate 0.3000 kg/ha,9.0
same,GALAP herbicidal rating,GALAP (Galium aparine) [19],0.0
same,IPOHE herbicidal rating,[15]; rate 0.0320 kg/ha,3.0
same,IPOHE herbicidal rating,[15]; rate 0.0620 kg/ha,6.0
same,IPOSS herbicidal rating,IPOSS (Ipomoea Spp.) [20],3.0
same,ECHCG herbicidal rating,[16]; rate 0.0320 kg/ha,1.0
same,ECHCG herbicidal rating,[16]; rate 0.0620 kg/ha,2.0
same,ECHCG herbicidal rating,[16]; rate 0.3000 kg/ha,0.0
same,SETVI herbicidal rating,SETVI (Setaria viridis) [17]; rate 0.0320 kg/ha,2.0
same,SETVI herbicidal rating,SETVI (Setaria viridis) [17]; rate 0.0620 kg/ha,2.0
same,SETVI herbicidal rating,SETVI (Setaria viridis) [17]; rate 0.3000 kg/ha,4.0
same,GLXMAW herbicidal rating,[21],5.0
same,GLXMA herbicidal rating,GLXMA (Soybean); rate 0.0320 kg/ha,5.5
same,GLXMA herbicidal rating,GLXMA (Soybean); rate 0.0620 kg/ha,6.0
same,ORYSAT herbicidal rating,"ORYSAT (Rice, Tebonnet) [22]",0.0
same,TRZAWR herbicidal rating,[23],0.0
same,ZEAMX herbicidal rating,"ZEAMX (Corn, Field) [18]; rate 0.0320 kg/ha",3.0
same,ZEAMX herbicidal rating,"ZEAMX (Corn, Field) [18]; rate 0.0620 kg/ha",3.0
same,ZEAMX herbicidal rating,"ZEAMX (Corn, Field) [18]; rate 0.3000 kg/ha",2.0
same,Preemergence herbicidal rating ABUTH,[1]; rate 0.3000 kg/ha,6.0
same,Preemergence herbicidal rating AMBEL,[2]; rate 0.3000 kg/ha,0.0
same,Preemergence herbicidal rating CHEAL,[3]; rate 0.3000 kg/ha,7.0
same,Preemergence herbicidal rating GALAP,GALAP (Galium aparine) [4]; rate 0.3000 kg/ha,6.0
same,Preemergence herbicidal rating IPOSS,IPOSS (Ipomoea Spp.) [5]; rate 0.3000 kg/ha,4.0
same,Preemergence herbicidal rating ECHCG,[6]; rate 0.3000 kg/ha,0.0
same,Preemergence herbicidal rating SETVI,SETVI (Setaria viridis) [7]; rate 0.3000 kg/ha,0.0
same,Preemergence herbicidal rating GLXMAW,[8]; rate 0.3000 kg/ha,0.0
same,Preemergence herbicidal rating ORYSAT,"ORYSAT (Rice, Tebonnet) [9]; rate 0.3000 kg/ha",0.0
same,Preemergence herbicidal rating TRZAWR,[10]; rate 0.3000 kg/ha,0.0
same,Preemergence herbicidal rating ZEAMX,"ZEAMX (Corn, Field) [11]; rate 0.3000 kg/ha",0.0
"CCN=C1NC(=O)C(OC)(c2nsc3ccc(-n4c(=O)cc(C(F)(F)F)n(C)c4=O)cc23)N1 (stereo not drawn) [Compound 98, 3-[3[4-methoxy-2-(ethylimino)-5-oxo-4-imidazolidinyl]-1,2-benzisothiazol-5-yl]-1-methyl-6-(trifluoromethyl)uracil]",ABUTH herbicidal rating,[12]; rate 0.0320 kg/ha,9.0
same,ABUTH herbicidal rating,[12]; rate 0.0620 kg/ha,9.0
same,AMBEL herbicidal rating,[13]; rate 0.0320 kg/ha,8.0
same,AMBEL herbicidal rating,[13]; rate 0.0620 kg/ha,8.0
same,CHEAL herbicidal rating,[14]; rate 0.0320 kg/ha,6.0
same,CHEAL herbicidal rating,[14]; rate 0.0620 kg/ha,8.0
same,IPOHE herbicidal rating,[15]; rate 0.0320 kg/ha,9.0
same,IPOHE herbicidal rating,[15]; rate 0.0620 kg/ha,8.0
same,ECHCG herbicidal rating,[16]; rate 0.0320 kg/ha,2.0
same,ECHCG herbicidal rating,[16]; rate 0.0620 kg/ha,2.0
same,SETVI herbicidal rating,SETVI (Setaria viridis) [17]; rate 0.0320 kg/ha,3.0
same,SETVI herbicidal rating,SETVI (Setaria viridis) [17]; rate 0.0620 kg/ha,3.0
same,GLXMA herbicidal rating,GLXMA (Soybean); rate 0.0320 kg/ha,8.0
same,GLXMA herbicidal rating,GLXMA (Soybean); rate 0.0620 kg/ha,8.0
same,ZEAMX herbicidal rating,"ZEAMX (Corn, Field) [18]; rate 0.0320 kg/ha",3.5
same,ZEAMX herbicidal rating,"ZEAMX (Corn, Field) [18]; rate 0.0620 kg/ha",3.5
